{
  "source": "BindingDB's records for doi:10.1021/jm00163a069",
  "about": "(Merck Sharp & Dohme Research Laboratories, 1990)",
  "experiment": "Inhibition of binding of [125I]CCK-8 to Cholecystokinin type B receptor in guinea pig brain tissues",
  "note": "pIC50: −log10 of the molar value.",
  "data": [
    {"smiles": "O=C(NCC1CNc2ccccc2C(c2ccccc2F)=N1)C(O)c1ccccc1", "note": "(stereo unspecified)", "values": [
      {"measurement": "pIC50", "value": "< 4.00"}
    ]}
  ]
}
